The record followed here is patent US8273774B2, “Phenoxypyridinylamide compounds” (AstraZeneca AB, priority 2008, dated 2012).

The structures appear in SMILES notation.

recombinant Human Phosphodiesterase B2 (PDE4B2), sequence (Q07343 1-564 isoform Q07343-2): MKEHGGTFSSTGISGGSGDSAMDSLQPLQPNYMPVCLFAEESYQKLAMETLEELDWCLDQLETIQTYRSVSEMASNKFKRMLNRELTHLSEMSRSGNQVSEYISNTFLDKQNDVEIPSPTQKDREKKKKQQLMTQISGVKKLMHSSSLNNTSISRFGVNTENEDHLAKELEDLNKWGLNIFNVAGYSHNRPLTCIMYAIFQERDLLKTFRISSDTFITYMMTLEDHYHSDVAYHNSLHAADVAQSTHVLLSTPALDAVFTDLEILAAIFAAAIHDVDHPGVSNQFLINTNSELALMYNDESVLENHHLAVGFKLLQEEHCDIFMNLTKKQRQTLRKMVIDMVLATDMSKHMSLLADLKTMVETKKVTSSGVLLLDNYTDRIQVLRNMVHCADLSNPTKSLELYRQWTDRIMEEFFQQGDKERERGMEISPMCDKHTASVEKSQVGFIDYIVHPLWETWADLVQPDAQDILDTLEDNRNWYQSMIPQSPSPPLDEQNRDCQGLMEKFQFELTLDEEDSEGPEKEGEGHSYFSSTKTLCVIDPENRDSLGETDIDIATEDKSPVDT

The target of this assay is recombinant Human Phosphodiesterase B2 (PDE4B2) (Homo sapiens, UniProt Q07343). In words: Human Phosphodiesterase B2 Radiometric Assay. In kind it is biochemical. To be noted: 0.1 μg/mL recombinant PDE4B2; preincubated at 30 C for 30 min; [3H]cyclic AMP 8 nM, stopped after 20 min; yttrium silicate SPA beads; read-out: PDE4B2 pIC50 (converted). The method, then:
Human Phosphodiesterase B2 Radiometric Assay
The assay uses recombinant Human Phosphodiesterase B2 (PDE4B2) produced in house (PrAZL0163), stored at −20° C. This assay is based on the observation that 5′AMP, the product of the reaction catalysed by PDE4, binds preferentially to yttrium silicate SPA beads (Amersham Biosciences, UK) compared to the substrate, cAMP. Compounds at the appropriate concentration were preincubated at 30 C for 30 min with an assay buffer containing 50 mM HEPES (pH 7.5), 8.3 mM MgCl2, 1.7 mM EGTA, 0.01% (w/v) Brij®35 and 0.1 μg/mL recombinant PDE4B2. The reaction was started by the addition of [3H]cyclic AMP to give a final concentration of 8 nM, and was stopped 20 min after the addition of the substrate by the addition of yttrium silicate SPA beads containing 18 mM Zn SO4. Bound […] was measured using a Topcount NXT (Packard Bioscience, UK). pIC50 values (presented in Table 2) were determined using Xlfit3 curve fitting, using model 205.
In the case of `O=C(N[C@H]1CC[C@@H](NC(=O)c2cc(F)cnc2Oc2cccc(-c3ccc(O)cc3CN3CCOCC3)c2)CC1)c1cccc(O)n1` [Example 40, N-((1s,4s)-4-(5-fluoro-2-(4′-hydroxy-2′-(morpholinomethyl)biphenyl-3-yloxy)nicotinamido)cyclohexyl)-6-hydroxypicolinamide], the IC50 was 0.794 nM. Regarding `Cc1nc(C(=O)N[C@H]2CC[C@@H](NC(=O)c3cc(F)cnc3Oc3cccc(-c4ccc(CCCN5CCNCC5)cc4)c3)CC2)cs1` [Example 74, N-((1s,4s)-4-(5-fluoro-2-(4′-(3-(piperazin-1-yl)propyl)biphenyl-3-yloxy)nicotinamido)cyclohexyl)-2-methylthiazole-4-carboxamide], the IC50 was 0.0251 nM. As for `C[C@@H]1CN(Cc2ccc(-c3cccc(Oc4ncc(F)cc4C(=O)N[C@H]4CC[C@@H](NC(=O)c5csc(CO)n5)CC4)c3)cc2)C[C@H](C)N1` [Example 70, N-((1s,4s)-4-(2-(4′-(((3S,5R)-3,5-dimethylpiperazin-1-yl)methyl)biphenyl-3-yloxy)-5-fluoronicotinamido)cyclohexyl)-2-(hydroxymethyl)thiazole-4-carboxamide], the figure is 0.0794 nM; as for `Cc1cccc(C(=O)N[C@H]2CC[C@@H](NC(=O)c3cc(F)cnc3Oc3cccc(-c4ccc(O)c(CN5C[C@@H](C)N[C@@H](C)C5)c4)c3)CC2)n1` [Example 89, N-((1s,4s)-4-(2-(3′-(((3S,5R)-3,5-dimethylpiperazin-1-yl)methyl)-4′-hydroxybiphenyl-3-yloxy)-5-fluoronicotinamido)cyclohexyl)-6-methylpicolinamide], 0.0794 nM; as for `CN(C)Cc1cc(O)ccc1-c1cccc(Oc2ncc(F)cc2C(=O)N[C@H]2CC[C@@H](NC(=O)c3cccc4[nH]cnc34)CC2)c1` [Example 52, N-((1s,4s)-4-(2-(2′-((dimethylamino)methyl)-4′-hydroxybiphenyl-3-yloxy)-5-fluoronicotinamido)cyclohexyl)-1H-benzo[d]imidazole-4-carboxamide], 0.0501 nM. As for `Cc1cccc2nc(C(=O)N[C@H]3CC[C@@H](NC(=O)c4cc(F)cnc4Oc4cccc(-c5ccc(CN6CCCN(C)CC6)cc5CN5CCOCC5)c4)CC3)cn12` [Example 185, N-((1s,4s)-4-(5-Fluoro-2-(4′-((4-methyl-1,4-diazepan-1-yl)methyl)-2′-(morpholinomethyl)biphenyl-3-yloxy)nicotinamido)cyclohexyl)-5-methylimidazo[1,2-a]pyridine-2-carboxamide], the figure is 0.02 nM.

For the compound `Cc1cccc(C(=O)N[C@H]2CC[C@@H](NC(=O)c3cc(F)cnc3Oc3cccc(-c4ccc(O)cc4CN4CCCOCC4)c3)CC2)n1` [Example 14, N-((1s,4s)-4-(2-(2′-((1,4-oxazepan-4-yl)methyl)-4′-hydroxybiphenyl-3-yloxy)-5-fluoronicotinamido)cyclohexyl)-6-methylpicolinamide], the IC50 was 0.02 nM. The value for `Cc1cc(C(=O)N[C@H]2CC[C@@H](NC(=O)c3cc(F)cnc3Oc3cccc(-c4cccc(CN5C[C@@H](C)N[C@@H](C)C5)c4O)c3)CC2)nn1C` [Example 78, N-((1s,4s)-4-(1,5-dimethyl-1H-pyrazole-3-carboxamido)cyclohexyl)-2-(3′-(((3R,5S)-3,5-dimethylpiperazin-1-yl)methyl)-2′-hydroxybiphenyl-3-yloxy)-5-fluoronicotinamide] was 0.0794 nM; that for `Cc1cccc(C(=O)N[C@H]2CC[C@@H](NC(=O)c3cc(F)cnc3Oc3cccc(-c4ccc(CCCN5CCNCC5)cc4)c3)CC2)n1` [Example 153, N-((1s,4s)-4-(5-fluoro-2-(4′-(3-(piperazin-1-yl)propyl)biphenyl-3-yloxy)nicotinamido)cyclohexyl)-6-methylpicolinamide] was 0.0316 nM. Regarding `Cc1nc(C(=O)N[C@H]2CC[C@@H](NC(=O)c3cc(F)cnc3Oc3cccc(-c4cccc(CCCN5CCNCC5)c4)c3)CC2)cs1` [Example 131, N-((1s,4s)-4-(5-fluoro-2-(3′-(3-(piperazin-1-yl)propyl)biphenyl-3-yloxy)nicotinamido)cyclohexyl)-2-methylthiazole-4-carboxamide], the IC50 was 0.126 nM.

Consider `Cc1csc(C(=O)N[C@H]2CC[C@@H](NC(=O)c3cc(F)cnc3Oc3cccc(-c4ccc(O)c(CN5C[C@@H](C)N[C@@H](C)C5)c4)c3)CC2)n1` [Example 88, N-((1s,4s)-4-(2-(3′-(((3S,5R)-3,5-dimethylpiperazin-1-yl)methyl)-4′-hydroxybiphenyl-3-yloxy)-5-fluoronicotinamido)cyclohexyl)-4-methylthiazole-2-carboxamide], for which the IC50 was 0.0316 nM. As for `CCc1nc(C(=O)N[C@H]2CC[C@@H](NC(=O)c3cc(F)cnc3Oc3cccc(-c4ccc(CN5C[C@@H](C)N[C@@H](C)C5)cc4)c3)CC2)cs1` [Example 76, N-((1s,4s)-4-(2-(4′-(((3S,5R)-3,5-dimethylpiperazin-1-yl)methyl)biphenyl-3-yloxy)-5-fluoronicotinamido)cyclohexyl)-2-ethylthiazole-4-carboxamide], the figure is 0.0631 nM; as for `C[C@@H]1CN(CCCc2cccc(-c3cccc(Oc4ncc(F)cc4C(=O)N[C@H]4CC[C@@H](NC(=O)c5cc6n(n5)CCC6)CC4)c3)c2)C[C@H](C)N1` [Example 172, N-((1s,4s)-4-(2-(3′-(3-((3S,5R)-3,5-Dimethylpiperazin-1-yl)propyl)biphenyl-3-yloxy)-5-fluoronicotinamido)cyclohexyl)-5,6-dihydro-4H-pyrrolo[1,2-b]pyrazole-2-carboxamide], 0.0631 nM; as for `Cc1cccc2nc(C(=O)N[C@H]3CC[C@@H](NC(=O)c4cc(F)cnc4Oc4cccc(-c5ccc(CN(C)C)cc5)c4)CC3)cn12` [Example 47, N-((1s,4s)-4-(2-(4′-((dimethylamino)methyl)biphenyl-3-yloxy)-5-fluoronicotinamido)cyclohexyl)-5-methylimidazo[1,2-a]pyridine-2-carboxamide], 0.794 nM. Take `C[C@@H]1CN(Cc2cc(-c3cccc(Oc4ncc(F)cc4C(=O)N[C@H]4CC[C@@H](NC(=O)c5cc(C(F)(F)F)n(C)n5)CC4)c3)ccc2O)C[C@H](C)N1` [Example 92, 2-(3′-(((3S,5R)-3,5-dimethylpiperazin-1-yl)methyl)-4′-hydroxybiphenyl-3-yloxy)-5-fluoro-N-((1s,4s)-4-(1-methyl-5-(trifluoromethyl)-1H-pyrazole-3-carboxamido)cyclohexyl)nicotinamide]: the IC50 is 0.126 nM. Take `Cc1cccc2nc(C(=O)N[C@H]3CC[C@@H](NC(=O)c4cc(F)cnc4Oc4cccc(-c5ccc(CN6CCC(N7CCCC7)CC6)cc5)c4)CC3)cn12` [Example 109, N-((1s,4s)-4-(5-fluoro-2-(4′-((4-(pyrrolidin-1-yl)piperidin-1-yl)methyl)biphenyl-3-yloxy)nicotinamido)cyclohexyl)-5-methylimidazo[1,2-a]pyridine-2-carboxamide]: the IC50 is 0.0631 nM. The value for `C[C@@H]1CN(Cc2cc(-c3cccc(Oc4ncc(F)cc4C(=O)N[C@H]4CC[C@@H](NC(=O)c5cn6cc(F)ccc6n5)CC4)c3)ccc2O)C[C@H](C)N1` [Example 84, N-((1s,4s)-4-(2-(3′-(((3S,5R)-3,5-dimethylpiperazin-1-yl)methyl)-4′-hydroxybiphenyl-3-yloxy)-5-fluoronicotinamido)cyclohexyl)-6-fluoroimidazo[1,2-a]pyridine-2-carboxamide] was 0.158 nM; that for `Cc1cccc2nc(CN[C@H]3CC[C@@H](NC(=O)c4cc(F)cnc4Oc4cccc(-c5ccc(O)cc5CN5CCOCC5)c4)CC3)cn12` [Example 8, 5-fluoro-2-(4′-hydroxy-2′-(morpholinomethyl)biphenyl-3-yloxy)-N-((1s,4s)-4-((5-methylimidazo[1,2-a]pyridin-2-yl)methylamino)cyclohexyl)nicotinamide] was 0.631 nM. As for `O=C(N[C@H]1CC[C@@H](NC(=O)c2cc(F)cnc2Oc2cccc(-c3ccc(CN4CCSCC4)cc3CN3CCOCC3)c2)CC1)c1csc(CO)n1` [Example 170, N-((1s,4s)-4-(5-Fluoro-2-(2′-(morpholinomethyl)-4′-(thiomorpholinomethyl)biphenyl-3-yloxy)nicotinamido)cyclohexyl)-2-(hydroxymethyl)thiazole-4-carboxamide], the IC50 was 0.0501 nM.

Turning to `C[C@@H]1CN(Cc2cc(-c3cccc(Oc4ncc(F)cc4C(=O)N[C@H]4CC[C@@H](NC(=O)c5cccc6[nH]cnc56)CC4)c3)ccc2O)C[C@H](C)N1` [Example 94, N-((1s,4s)-4-(2-(3′-(((3S,5R)-3,5-dimethylpiperazin-1-yl)methyl)-4′-hydroxybiphenyl-3-yloxy)-5-fluoronicotinamido)cyclohexyl)-1H-benzo[d]imidazole-4-carboxamide], the IC50 is 0.0631 nM.

In the case of `Cc1cccc2nc(C(=O)N[C@H]3CC[C@@H](NC(=O)c4cc(F)cnc4Oc4cccc(-c5ccc(CN6CCCC6)cc5)c4)CC3)cn12` [Example 50, N-((1s,4s)-4-(5-fluoro-2-(4′-(pyrrolidin-1-ylmethyl)biphenyl-3-yloxy)nicotinamido)cyclohexyl)-5-methylimidazo[1,2-a]pyridine-2-carboxamide], the IC50 was 0.316 nM. As for `CN1CCCN(Cc2cc(O)ccc2-c2cccc(Oc3ncc(F)cc3C(=O)N[C@H]3CC[C@@H](NC(=O)c4ccc5ccccc5n4)CC3)c2)CC1` [Example 27, N-((1s,4s)-4-(5-fluoro-2-(4′-hydroxy-2′-((4-methyl-1,4-diazepan-1-yl)methyl)biphenyl-3-yloxy)nicotinamido)cyclohexyl)quinoline-2-carboxamide], the figure is 0.631 nM.
